Source: BindingDB's records for doi:10.1021/acs.jmedchem.7b00876 (University of Wisconsin-Madison, 2017)

Target: T1, Parathyroid hormone/parathyroid hormone-related peptide receptor (Homo sapiens, UniProt Q03431)
T1 sequence (Q03431 whole entry): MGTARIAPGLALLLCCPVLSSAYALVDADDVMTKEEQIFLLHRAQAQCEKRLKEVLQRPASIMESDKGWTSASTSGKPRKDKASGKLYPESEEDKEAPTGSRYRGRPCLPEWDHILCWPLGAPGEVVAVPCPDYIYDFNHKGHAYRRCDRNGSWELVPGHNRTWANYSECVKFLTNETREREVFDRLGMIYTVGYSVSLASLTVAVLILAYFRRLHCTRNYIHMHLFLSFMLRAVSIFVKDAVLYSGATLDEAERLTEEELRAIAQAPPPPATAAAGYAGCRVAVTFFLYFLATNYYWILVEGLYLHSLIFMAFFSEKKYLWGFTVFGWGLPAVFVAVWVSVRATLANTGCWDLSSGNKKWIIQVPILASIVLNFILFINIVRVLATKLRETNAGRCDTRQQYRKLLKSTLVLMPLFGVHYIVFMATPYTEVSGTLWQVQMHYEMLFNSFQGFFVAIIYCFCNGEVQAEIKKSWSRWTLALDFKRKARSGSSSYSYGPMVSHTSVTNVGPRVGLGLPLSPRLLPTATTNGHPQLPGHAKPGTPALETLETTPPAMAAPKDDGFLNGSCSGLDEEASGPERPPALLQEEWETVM
Experiment: Agonist activity at human PTH1 receptor expressed in human GP2.3 cells assessed as induction of cAMP after 12 to 20 mins by luciferase reporter gene assay

**Q.** CC[C@H](C)[C@H](NC(=O)[C@H](CC(C)C)NC(=O)[C@H]1CNC[C@@H]1NC(=O)[C@H](Cc1c[nH]cn1)NC(=O)[C@H](CC(C)C)NC(=O)[C@H](Cc1ccccc1)NC(=O)[C@H]1CNC[C@@H]1NC(=O)[C@H](CCCNC(=N)N)NC(=O)[C@H](CCCNC(=N)N)NC(=O)[C@H](CCCNC(=N)N)NC(=O)[C@H]1CCC[C@@H]1NC(=O)[C@H](CC(=O)O)NC(=O)[C@H](CCC(N)=O)NC(=O)[C@@H](NC(=O)[C@H]1CCC[C@@H]1NC(=O)[C@H](CCCCN)NC(=O)CNC(=O)[C@H](CCCCN)NC(=O)[C@H](CC(=O)O)NC(=O)[C@H](Cc1c[nH]cn1)NC(=O)[C@H](CC(C)C)NC(=O)[C@H](CC(C)C)NC(=O)[C@H](CCC(N)=O)NC(=O)[C@H](Cc1c[nH]cn1)NC(=O)[C@H](CCC(=O)O)NC(=O)[C@H](CO)NC(=O)[C@@H](NC(=O)[C@H](C)N)C(C)C)[C@@H](C)CC)C(=O)N[C@@H](C)C(=O)N[C@H]1CCC[C@@H]1C(=O)N[C@H](C(=O)N[C@@H](Cc1c[nH]cn1)C(=O)N[C@H](C(=O)N[C@H]1CCC[C@@H]1C(N)=O)[C@@H](C)O)[C@@H](C)CC was tested. Which EC50 did it give?
**A.** Its EC50 is 650 pM.
